Test results from PubChem BioAssay (NCI).
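Protocol summary: plate cells (96-well), add compound at 5 concentrations, incubate 48 h, interpolate endpoints linearly. TGI marks complete inhibition of growth.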

Experiments:
Test in all cases: NCI anticancer screen, dose series, 48 h
786-0 renal = system: 786-0 renal
A498 renal = system: A498 renal
A549 NSCLC = system: A549 NSCLC
ACHN renal = system: ACHN renal
CAKI-1 renal = system: CAKI-1 renal
CCRF-CEM leukemia = system: CCRF-CEM leukemia
COLO 205 colon = system: COLO 205 colon
DU-145 prostate = system: DU-145 prostate
EKVX NSCLC = system: EKVX NSCLC
HCC-2998 colon = system: HCC-2998 colon
HCT-116 colon = system: HCT-116 colon
HCT-15 colon = system: HCT-15 colon
HL-60(TB) leukemia = system: HL-60(TB) leukemia
HOP-62 NSCLC = system: HOP-62 NSCLC
HOP-92 NSCLC = system: HOP-92 NSCLC
HT29 colon = system: HT29 colon
IGROV1 ovarian = system: IGROV1 ovarian
K-562 leukemia = system: K-562 leukemia
KM12 colon = system: KM12 colon
LOX IMVI melanoma = system: LOX IMVI melanoma
M14 melanoma = system: M14 melanoma
MALME-3M melanoma = system: MALME-3M melanoma
MCF7 breast = system: MCF7 breast
MDA-MB-231 breast = system: MDA-MB-231 breast
MDA-MB-435 = system: MDA-MB-435
MDA-N = system: MDA-N
MOLT-4 leukemia = system: MOLT-4 leukemia
NCI-H226 lung = system: NCI-H226 lung
NCI-H23 lung = system: NCI-H23 lung
NCI-H460 lung = system: NCI-H460 lung
NCI-H522 lung = system: NCI-H522 lung
NCI/ADR-RES ovarian = system: NCI/ADR-RES ovarian
OVCAR-3 ovarian = system: OVCAR-3 ovarian
OVCAR-4 ovarian = system: OVCAR-4 ovarian
OVCAR-5 ovarian = system: OVCAR-5 ovarian
OVCAR-8 ovarian = system: OVCAR-8 ovarian
PC-3 prostate = system: PC-3 prostate
RXF 393 renal = system: RXF 393 renal
SF-268 CNS = system: SF-268 CNS
SF-295 CNS = system: SF-295 CNS
SF-539 CNS = system: SF-539 CNS
SK-MEL-2 melanoma = system: SK-MEL-2 melanoma
SK-MEL-28 melanoma = system: SK-MEL-28 melanoma
SK-MEL-5 melanoma = system: SK-MEL-5 melanoma
SK-OV-3 ovarian = system: SK-OV-3 ovarian
SN12C renal = system: SN12C renal
SNB-19 CNS = system: SNB-19 CNS
SNB-75 CNS = system: SNB-75 CNS
SR leukemia = system: SR leukemia
SW-620 colon = system: SW-620 colon
T-47D breast = system: T-47D breast
TK-10 renal = system: TK-10 renal
U251 CNS = system: U251 CNS
UACC-257 melanoma = system: UACC-257 melanoma
UACC-62 melanoma = system: UACC-62 melanoma
UO-31 renal = system: UO-31 renal
BT-549 breast = system: BT-549 breast
RPMI-8226 leukemia = system: RPMI-8226 leukemia

Work on `CC(=O)OCC1OC(n2c(C)c(C(C)=O)c(-c3cccc4ccccc34)c(C#N)c2=S)C(OC(C)=O)C(OC(C)=O)C1OC(C)=O` (stereo unspecified) yielded a TGI (786-0 renal) greater than 100 µM, a TGI (A498 renal) greater than 100 µM and a TGI (A549 NSCLC) greater than 100 µM. It also gave a TGI (ACHN renal) greater than 100 µM, a TGI (CAKI-1 renal) greater than 100 µM and a TGI (CCRF-CEM leukemia) greater than 100 µM. For the same compound, the TGI (COLO 205 colon) was greater than 100 µM, the TGI (DU-145 prostate) was greater than 100 µM and the TGI (EKVX NSCLC) was greater than 100 µM. The TGI (HCC-2998 colon) was greater than 100 µM, the TGI (HCT-116 colon) was greater than 100 µM and the TGI (HCT-15 colon) was greater than 100 µM. For the same compound, the TGI (HL-60(TB) leukemia) was greater than 100 µM, the TGI (HOP-62 NSCLC) was greater than 100 µM and the TGI (HOP-92 NSCLC) was greater than 100 µM. It also gave a TGI (HT29 colon) greater than 100 µM, a TGI (IGROV1 ovarian) greater than 100 µM and a TGI (K-562 leukemia) greater than 100 µM. The TGI (KM12 colon) was greater than 100 µM, the TGI (LOX IMVI melanoma) was greater than 100 µM and the TGI (M14 melanoma) was greater than 100 µM. The TGI (MALME-3M melanoma) was greater than 100 µM, the TGI (MCF7 breast) was greater than 100 µM and the TGI (MDA-MB-231 breast) was greater than 100 µM. For the same compound, the TGI (MDA-MB-435) was greater than 100 µM, the TGI (MDA-N) was greater than 100 µM and the TGI (MOLT-4 leukemia) was greater than 100 µM. It also gave a TGI (NCI-H226 lung) greater than 100 µM, a TGI (NCI-H23 lung) greater than 100 µM and a TGI (NCI-H460 lung) greater than 100 µM. For the same compound, the TGI (NCI-H522 lung) was greater than 100 µM, the TGI (NCI/ADR-RES ovarian) was greater than 100 µM and the TGI (OVCAR-3 ovarian) was greater than 100 µM. The TGI (OVCAR-4 ovarian) was greater than 100 µM, the TGI (OVCAR-5 ovarian) was greater than 100 µM and the TGI (OVCAR-8 ovarian) was greater than 100 µM. For the same compound, the TGI (PC-3 prostate) was greater than 100 µM, the TGI (RXF 393 renal) was greater than 100 µM and the TGI (SF-268 CNS) was greater than 100 µM. The TGI (SF-295 CNS) was greater than 100 µM, the TGI (SF-539 CNS) was greater than 100 µM and the TGI (SK-MEL-2 melanoma) was greater than 100 µM. The TGI (SK-MEL-28 melanoma) was greater than 100 µM, the TGI (SK-MEL-5 melanoma) was greater than 100 µM and the TGI (SK-OV-3 ovarian) was greater than 100 µM. It also gave a TGI (SN12C renal) greater than 100 µM, a TGI (SNB-19 CNS) greater than 100 µM and a TGI (SNB-75 CNS) greater than 100 µM. For the same compound, the TGI (SR leukemia) was greater than 100 µM, the TGI (SW-620 colon) was greater than 100 µM and the TGI (T-47D breast) was greater than 100 µM. For the same compound, the TGI (TK-10 renal) was greater than 100 µM, the TGI (U251 CNS) was greater than 100 µM and the TGI (UACC-257 melanoma) was greater than 100 µM. It also gave a TGI (UACC-62 melanoma) greater than 100 µM and a TGI (UO-31 renal) of 0.249 µM.
`CN(C)CCNC(=O)c1cc(-c2nccn2C)nc2ccccc12` was tested, and the TGI (786-0 renal) was greater than 100 µM, the TGI (A498 renal) was greater than 100 µM and the TGI (A549 NSCLC) was greater than 100 µM. It also gave a TGI (ACHN renal) greater than 100 µM, a TGI (BT-549 breast) greater than 100 µM and a TGI (CAKI-1 renal) greater than 100 µM. The TGI (CCRF-CEM leukemia) was greater than 100 µM, the TGI (COLO 205 colon) was greater than 100 µM and the TGI (DU-145 prostate) was greater than 100 µM. The TGI (EKVX NSCLC) was greater than 100 µM, the TGI (HCC-2998 colon) was greater than 100 µM and the TGI (HCT-116 colon) was greater than 100 µM. The TGI (HCT-15 colon) was greater than 100 µM, the TGI (HL-60(TB) leukemia) was greater than 100 µM and the TGI (HOP-62 NSCLC) was greater than 100 µM. It also gave a TGI (HOP-92 NSCLC) greater than 100 µM, a TGI (HT29 colon) greater than 100 µM and a TGI (IGROV1 ovarian) greater than 100 µM. It also gave a TGI (K-562 leukemia) greater than 100 µM, a TGI (KM12 colon) greater than 100 µM and a TGI (LOX IMVI melanoma) greater than 100 µM. For the same compound, the TGI (M14 melanoma) was greater than 100 µM, the TGI (MALME-3M melanoma) was greater than 100 µM and the TGI (MCF7 breast) was greater than 100 µM. For the same compound, the TGI (MDA-MB-231 breast) was greater than 100 µM, the TGI (MDA-MB-435) was greater than 100 µM and the TGI (MDA-N) was greater than 100 µM. It also gave a TGI (MOLT-4 leukemia) greater than 100 µM, a TGI (NCI-H226 lung) greater than 100 µM and a TGI (NCI-H23 lung) greater than 100 µM. The TGI (NCI-H460 lung) was greater than 100 µM, the TGI (NCI-H522 lung) was greater than 100 µM and the TGI (NCI/ADR-RES ovarian) was greater than 100 µM. The TGI (OVCAR-5 ovarian) was greater than 100 µM, the TGI (OVCAR-8 ovarian) was greater than 100 µM and the TGI (PC-3 prostate) was greater than 100 µM. The TGI (RPMI-8226 leukemia) was greater than 100 µM, the TGI (RXF 393 renal) was greater than 100 µM and the TGI (SF-268 CNS) was greater than 100 µM. For the same compound, the TGI (SF-539 CNS) was greater than 100 µM, the TGI (SK-MEL-2 melanoma) was greater than 100 µM and the TGI (SK-MEL-5 melanoma) was greater than 100 µM. It also gave a TGI (SN12C renal) greater than 100 µM, a TGI (SNB-19 CNS) greater than 100 µM and a TGI (SNB-75 CNS) greater than 100 µM. For the same compound, the TGI (SR leukemia) was greater than 100 µM, the TGI (SW-620 colon) was greater than 100 µM and the TGI (T-47D breast) was greater than 100 µM. The TGI (TK-10 renal) was greater than 100 µM, the TGI (U251 CNS) was greater than 100 µM and the TGI (UACC-257 melanoma) was greater than 100 µM. The TGI (UACC-62 melanoma) was greater than 100 µM and the TGI (UO-31 renal) was greater than 100 µM.
`O=C(CN1CCOCC1)Nc1ccc2c(c1)C1Oc3ccccc3CC1CO2` (stereo unspecified) was tested, and the TGI (786-0 renal) was greater than 100 µM, the TGI (A498 renal) was greater than 100 µM and the TGI (A549 NSCLC) was greater than 100 µM. It also gave a TGI (ACHN renal) greater than 100 µM, a TGI (BT-549 breast) greater than 100 µM and a TGI (CAKI-1 renal) greater than 100 µM. The TGI (CCRF-CEM leukemia) was greater than 100 µM, the TGI (COLO 205 colon) was greater than 100 µM and the TGI (DU-145 prostate) was greater than 100 µM. The TGI (EKVX NSCLC) was greater than 100 µM, the TGI (HCC-2998 colon) was greater than 100 µM and the TGI (HCT-116 colon) was greater than 100 µM. The TGI (HCT-15 colon) was greater than 100 µM, the TGI (HOP-62 NSCLC) was greater than 100 µM and the TGI (HOP-92 NSCLC) was greater than 100 µM. For the same compound, the TGI (HT29 colon) was greater than 100 µM, the TGI (IGROV1 ovarian) was greater than 100 µM and the TGI (K-562 leukemia) was greater than 100 µM. It also gave a TGI (KM12 colon) greater than 100 µM, a TGI (LOX IMVI melanoma) greater than 100 µM and a TGI (M14 melanoma) greater than 100 µM. The TGI (MALME-3M melanoma) was greater than 100 µM, the TGI (MCF7 breast) was greater than 100 µM and the TGI (MDA-MB-231 breast) was greater than 100 µM. For the same compound, the TGI (MDA-MB-435) was greater than 100 µM, the TGI (MDA-N) was greater than 100 µM and the TGI (MOLT-4 leukemia) was greater than 100 µM. For the same compound, the TGI (NCI-H226 lung) was greater than 100 µM, the TGI (NCI-H23 lung) was greater than 100 µM and the TGI (NCI-H522 lung) was greater than 100 µM. For the same compound, the TGI (NCI/ADR-RES ovarian) was greater than 100 µM, the TGI (OVCAR-3 ovarian) was greater than 100 µM and the TGI (OVCAR-5 ovarian) was greater than 100 µM. It also gave a TGI (OVCAR-8 ovarian) greater than 100 µM, a TGI (PC-3 prostate) greater than 100 µM and a TGI (RPMI-8226 leukemia) greater than 100 µM. The TGI (SF-268 CNS) was greater than 100 µM, the TGI (SF-295 CNS) was greater than 100 µM and the TGI (SF-539 CNS) was greater than 100 µM. It also gave a TGI (SK-MEL-2 melanoma) greater than 100 µM, a TGI (SK-MEL-5 melanoma) greater than 100 µM and a TGI (SK-OV-3 ovarian) greater than 100 µM. It also gave a TGI (SN12C renal) greater than 100 µM, a TGI (SNB-19 CNS) greater than 100 µM and a TGI (SR leukemia) greater than 100 µM. It also gave a TGI (SW-620 colon) greater than 100 µM, a TGI (T-47D breast) greater than 100 µM and a TGI (TK-10 renal) greater than 100 µM. The TGI (U251 CNS) was greater than 100 µM, the TGI (UACC-257 melanoma) was greater than 100 µM and the TGI (UACC-62 melanoma) was greater than 100 µM. It also gave a TGI (UO-31 renal) greater than 100 µM.
